Laboratory results reported in PMC8243516, “Inhibition of lysosomal phospholipase A2 predicts drug-induced phospholipidosis” (Journal of Lipid Research, 2021).
Counter-ions that a name gives are not always drawn. Like-named read-outs stand apart in the source and are kept apart here.

How the values were obtained:
[1] = biological target: T1, recombinant mouse LPLA2 (PLA2G15) (Mus musculus, UniProt Q8VEB4); assay: Transacylase activity of LPLA2 (1-O-acyl-N-acetylsphingosine synthase, cell-free liposome assay); assay type: biochemical
T1 construct: purchased Proteos Inc. (Kalamazoo, MI)
T1 sequence (Q8VEB4 34-412): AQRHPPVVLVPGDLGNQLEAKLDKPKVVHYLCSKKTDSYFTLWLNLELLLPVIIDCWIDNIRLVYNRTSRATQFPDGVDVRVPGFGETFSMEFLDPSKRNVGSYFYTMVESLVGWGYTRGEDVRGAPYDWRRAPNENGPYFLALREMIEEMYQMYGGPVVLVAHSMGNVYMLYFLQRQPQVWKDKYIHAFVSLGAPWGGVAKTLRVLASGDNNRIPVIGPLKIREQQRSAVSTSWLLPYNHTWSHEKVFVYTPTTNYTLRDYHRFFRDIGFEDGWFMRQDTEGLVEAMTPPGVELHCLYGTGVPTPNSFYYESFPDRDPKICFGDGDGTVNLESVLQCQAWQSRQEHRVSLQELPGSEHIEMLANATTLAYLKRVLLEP

[2] = ref Pubchem and chEMBL databases; cited from earlier work
phospholipidosis = details: cited from earlier work
LPLA2 = biological target: T2, LPLA2 (Mus musculus, UniProt Q8VEB4); assay: LPLA2 thermal stability measurement (SYPRO Orange Tm); assay type: binding
T2 construct: purchased Proteos Inc. (Kalamazoo, MI)
T2 sequence (Q8VEB4 34-412): T1 sequence (Q8VEB4 34-412)

[3] = 1-O-acyl N-acetylsphingosine synthase activity, pH 4.5, DOPC/sulfatide liposomes, read-out: LPLA2 IC50
[4] = phospholipidosis reported in vitro, Refs of Table 1

Compound | IC50 [1, 3] [µM] | pKa (basic) [2] | In Vitro PLD (phospholipidosis; [4]) | (ΔTm)c-(ΔTm)d, difference in melting temperature of LPLA2 alone or in the presence of drug (LPLA2; N=3 ± SD) [°C] | further results
C[C@]12C=CC(=O)N[C@@H]1CC[C@@H]1[C@@H]2CC[C@]2(C)[C@@H](C(=O)Nc3cc(C(F)(F)F)ccc3C(F)(F)F)CC[C@@H]12 [Dutasteride, (1S,2R,7R,10S,11S,14S,15S)-N-[2,5-bis (trifluoromethyl)phenyl]-2,15-dimethyl-5-oxo-6-azatetracyclo[8.7.0.0^2,^7.0^11,^15]heptadec-3-ene-14-carboxamide] | 1050 | 2.17 | Yes | – | –
C[C@]12C[C@H](O)[C@H]3[C@@H](CCC4=CC(=O)CC[C@@]43C)[C@@H]1CC[C@@H]2C(=O)CO [Corticosterone, (1S,2R,10S,11S,14S,15S,17S)-17-hydroxy-14-(2-hydroxyacetyl)-2,15-dimethyltetracyclo[8.7.0.0^2,^7.0^11,^15]heptadec-6-en-5-one] | 163 | -0.26 | Yes | 0 | –
Clc1ccc(C(OCCN2CCCCC2)c2ccccc2)cc1 (stereo not shown) [Cloperastin, 1-{2-[(4-chlorophenyl) (phenyl)methoxy]ethyl} piperidine] | 40.9 | 8.82 | Yes | 0 | –
c1ccc2c(c1)CCc1ccccc1C2 [Dibenzosuberane, 10,11-dihydro-5H-dibenzo [a, d] cycloheptene-833-48-7] | 346 | 10 | Yes | -1.94 ± 0.0 | –
O=C(COc1ccc(Cl)cc1)N1CCN(Cc2ccc3c(c2)OCO3)CC1 [Fipexide, 1-(2-[4-chlorophenoxy]acetyl)-4-(3,4-methylenedioxybenzyl)piperazine] | 17.2 | 6.09 | Yes | -0.17 ± 0.0 | –
CC12CC3CC(C)(C1)CC(N)(C3)C2.Cl [Memantine, 3,5-Dimethyl-1-adamantanamine hydrochloride] | 35.7 | – | Yes | 2.00 ± 0.2 | –
CC(CN(C)C)CN1c2ccccc2CCc2ccccc21 (stereo not shown) [Trimipramine, (3-{2-azatricyclo[9.4.0.0³,^8]pentadeca-1(15),3,5,7,11, 13-hexaen-2-yl}-2-methylpropyl)dimethylamine] | 268 | 9.42 | Yes | 0.56 ± 0.0 | –
O=C(CCCN1CCC2(CC1)C(=O)NCN2c1ccccc1)c1ccc(F)cc1 [Spiperone, 8-[3-(p-fluor benzoyl)propyl]-1-phenyl-1,3,8-triazaspiro [4.5]decan-4-one] | 519 | – | Yes | 1.86 ± 0.1 | –
c1ccc2c(CC3=NCCN3)cccc2c1 [Naphazoline, 2-(naphthalen-1-ylmethyl)-4,5-dihydro-1H-imidazole] | – | 10.19 | Yes | – | –
CCN(CC)CCc1nc(-c2ccccc2)no1 [Oxolamine citrate, diethyl[2-(3-phenyl-1,2,4-oxadiazol-5-yl)ethyl]amine] | 369 | 8.96 | Yes | – | –
CC(C)(C)NCC(O)c1cc(Cl)c(N)c(Cl)c1.Cl (stereo not drawn) [Clenbuterol, 4-amino-3,5-dichloro-α-[[(1,1-dimethylethyl)amino]methyl]-benzenemethanol, monohydrochloride] | – | – | Yes | 1.20 ± 0.23 | LPLA2 inhibition (in words) [1]: millimolar concentrations; IC50 ([1]; LPLA2 IC50): 7300 µM
Nc1c2c(nc3ccccc13)CCCC2 [Tacrine, 1,2,3,4-tetrahydroacridin-9-amine] | – | – | – | – | In Vitro PLD (phospholipidosis): Yes
O=C(O)c1cc(O)ccc1O [Gentisic acid, 2,5-dihydroxybenzoic acid sodium salt] | – | – | Yes | – | –
CN(C)CCOC(c1ccccc1)c1ccccc1 [Diphenhydramine] | – | – | Yes | – | –
CN(C)CCN(Cc1cccs1)c1ccccn1 [Methapyrilene, N-[2-(dimethylamino)ethyl]-N-[(thiophen-2-yl)methyl]pyridin-2-amine] | – | 8.85 | Yes | – | –
O=C(Nc1cccc2c(=O)cc(-c3nnn[nH]3)oc12)c1ccc(OCCCCc2ccccc2)cc1 [Pranlukast, N-[4-oxo-2-(2H-1,2,3,4-tetrazol-5-yl)-4H-chromen-8-yl]-4-(4-phenylbutoxy)benzamide] | – | -1.7 | Yes | 0 | –
CC(C)N=c1cc2n(-c3ccc(Cl)cc3)c3ccccc3nc-2cc1Nc1ccc(Cl)cc1 [Clofazimine, N,5-bis(4-chlorophenyl)-3,5-dihydro-3-(isopropylimino)phenazin-2-amine] | 10.8 | – | Yes | -0.97 ± 0.1 | –
CC(C)COCC(CN(Cc1ccccc1)c1ccccc1)N1CCCC1.Cl (stereo not shown) [Bepridil hydrochloride, 1-isobutoxy-2-pyrrolidino-3-(N-benzylanilino) propane hydrochloride] | 7.17 | 9.16 | – | – | In Vitro PLD (phospholipidosis): Yes
CN1CCC[C@@H]1CCO[C@](C)(c1ccccc1)c1ccc(Cl)cc1 [Clemastine] | – | 9.55 | Yes | – | –
CC1=C(CC(=O)O)c2cc(F)ccc2/C1=C\c1ccc([S+](C)[O-])cc1 (stereo not shown) [Sulindac, 2-[(1Z)-5-fluoro-1-[(4-methanesulfinylphenyl)methylidene]-2-methyl-1H-inden-3-yl]acetic acid] | 10.9 | – | Yes | -0.10 ± 0.0 | –
CN1CCN2c3ccccc3Cc3ccccc3C2C1 (stereo not shown) [Mianserin, 5-methyl-2,5 diazatetracyclo [13.4.0.0^2,^7.0^8,^1³] nonadeca-1(19),8,10,12,15,17-hexaene] | – | 6.9 | Yes | – | –
CN1CCC(=C2c3ccccc3CC(=O)c3sccc32)CC1 [Ketotifen] | 19.7 | – | Yes | 0.10 ± 0.0 | –
Clc1ccc(C(c2ccccc2Cl)C(Cl)Cl)cc1 (stereo not shown) [Mitotane, 1-chloro-4-[2,2-dichloro-1-(2-chlorophenyl)ethyl] benzene] | 132 | – | Yes | – | (ΔTm)c-(ΔTm)d, difference in melting temperature of LPLA2 alone or in the presence of drug (LPLA2): 0.47 ± 0.1 °C
CC(C)C[C@H]1C(=O)N2CCC[C@H]2[C@]2(O)O[C@](NC(=O)[C@@H]3C=C4c5cccc6[nH]c(Br)c(c56)C[C@H]4N(C)C3)(C(C)C)C(=O)N12 [Bromocriptine, (4R,7R)-10-bromo-N-[(1S,2S,4R,7S)-2-hydroxy-7-(2-methylpropyl)-5,8-dioxo-4-(propan-2-yl)-3-oxa-6,9-diazatricyclo[7.3.0.0ˆ{2,6}]dodecan-4-yl]-6-methyl-6,11diazatetracyclo[7.6.1.0ˆ{2,7}.0ˆ{12,16}]hexadeca-1(16),2,9,12,14-pentaene-4-carboxamide] | 125 | 6.71 | Yes | – | –
CC[C@H]1OC(=O)[C@H](C)[C@@H](O[C@H]2C[C@@](C)(OC)[C@@H](O)[C@H](C)O2)[C@H](C)[C@@H](O[C@@H]2O[C@H](C)C[C@H](N(C)C)[C@H]2O)[C@](C)(O)C[C@@H](C)C(=O)[C@H](C)[C@@H](O)[C@]1(C)O [Erythromycin, (3R,4S,5S,6R,7R,9R,11R,12R,13S,14R)-6-{[(2S,3R,4S,6R)-4-(dimethylamino)-3-hydroxy-6-methyloxan-2-yl]oxy}-14-ethyl-7,12,13-trihydroxy-4-{[(2R,4R,5S,6S)-5-hydroxy-4-methoxy-4,6-dimethyloxan-2-yl]oxy}-3,5,7,9,11,13-hexamethyl-1-oxacyclotetradecane-2,10-dione] | 117 | 8.38 | – | -0.48 ± 0.4 | –
COc1ccc(CCN2CCC(Nc3nc4ccccc4n3Cc3ccc(F)cc3)CC2)cc1 [Astemizole, 1-(4-fluorobenzyl)-2-(1-[4-methoxyphenethyl]piperidin-4-yl)aminobenzimidazole] | – | 8.75 | Yes | – | –
CCN(CC)CC#CCOC(=O)C(O)(c1ccccc1)C1CCCCC1 (stereo not drawn) [Oxybutynin, α-phenylcyclohexaneglycolic acid 4-(diethylamino)-2-butynyl ster hydrochloride] | – | 8.77 | Yes | – | –
CCCN(CCC)CCc1cccc2c1CC(=O)N2 [Ropinirole, 4-[2-(dipropylamino)ethyl]-2,3-dihydro-1H-indol-2-one] | – | 10.17 | Yes | – | –
CCOC(=O)N1CCC(=C2c3ccc(Cl)cc3CCc3cccnc32)CC1 [Loratadine, ethyl 4-{13-chloro-4-azatricyclo[9.4.0.0^3,^8]pentadeca-1(11),3(8),4,6,12,14-hexaen-2-ylidene}piperidine-1-carboxylate] | 8.94 | – | Yes | – | –
